Results published in article PMC5700124 (Scientific Reports, 2017).
“Also recorded” adds a separate entry of the source. Like-named read-outs stand apart in the source and are kept apart here.

Assays:
[1] = test system: α7 nicotinic acetylcholine receptors; parameters: method as in PMID 26455500; details: 1.24 mg/kg; cited from earlier work
α2 adrenoceptor = details: anterior forebrain; autoradiography; pH 7.7, 22 °C, mg^2+ 0; blocking of NS phentolamine 10 μM; ref Boyajian et al.[41]; cited from earlier work
plasma proteins [2] = test system: plasma proteins; parameters: method as in PMID 7836362; details: cited from earlier work
α1 and α2 adrenoceptors = test system: α1 and α2 adrenoceptors; parameters: method as in PMID 16153828; details: cited from earlier work
plasma proteins [3] = details: in the circulation; cited from earlier work
[4] = parameters: method as in Jakobsen et al.[14]; details: pigs, ref Jakobsen et al.[14], cited from earlier work
plasma proteins [5] = test: Plasma ultrafiltration, ex vivo (plasma free fraction fP of [^11C]yohimbine); type: in vitro ADME, rat; details: 0.3 mg/kg yohimbine i.v., P < 0.05
Method: In the ex vivo experiment, a separate group of six female Sprague Dawley rats were subjected to plasma ultrafiltration and treated identically to animals that underwent PET acquisition. […] We centrifuged the blood samples in heparinized tubes for 20 min at 4 °C to generate plasma and stored the samples at −50 °C.
To measure fP , we used the Centrifree centrifugal filter device (Millipore, Bedford, MA) with a molecular cutoff of 30 kDa for all samples. […] On the day of fP determination, the plasma samples were thawed in room temperature in 20 min. […] After 10 minutes incubation at room temperature, aliquots of 50 μl of this solution were used to measure the total activity (unfiltered plasma). […] The activity of filtered plasma was determined in triplicates. All samples were counted in a gamma device (Packard Cobra Gamma Counter, Model D5003). […] The correction factor, r, was determined as the ratio of the activity in the phosphate buffer before filtration, Abuffer(total), to the filtered buffer, Abuffer(ultrafiltrate),38 r=Abuffer(total)/Abuffer(ultrafiltrate), from which the plasma-free fraction, fP , was calculated as the ratio of the activity of the filtered plasma, Aplasma(ultrafiltrate), to the unfiltered plasma, Aplama(total), multiplied by the correction factor, r, for recovery,39 fP=rAplasma(ultrafiltrate)/Aplasma(total),

α2 adrenoceptors [6] = test system: α2 adrenoceptors; parameters: method as in Jakobsen and colleagues[14]; details: porcine brain, ref Jakobsen and colleagues[14], cited from earlier work
α2 adrenoceptors [7] = test: PET of [^11C]yohimbine binding in rat brain at baseline and at challenge with unlabeled yohimbine; details: for Binding potentials, BPND, percent-wise change (%) / Volumes of Distribution, VT, percent-wise change (%): COLD vs BASE, individual rats 1-5
[8] = rats; cited from earlier work
α2 adrenoceptor subtypes = test system: α2 adrenoceptor subtypes; parameters: method as in PMID 7908054; details: cited from earlier work
[9] = test system: [^11C]mirtazepin binding in porcine brain; parameters: method as in Smith et al.[34]; details: ref Smith et al.[34], cited from earlier work
[10] = test system: translocator protein (TSPO); parameters: method as in Hilmer et al.[39]; details: 0.1 ng/kg i.v.; ref Hilmer et al.[39]; cited from earlier work
[11] = CEREB cerebellum, unlabeled yohimbine 0.3 mg/kg i.v.
[12] = CP caudate putamen, unlabeled yohimbine 0.3 mg/kg i.v.
[13] = HYP hypothalamus, unlabeled yohimbine 0.3 mg/kg i.v.
[14] = MC motor cortex, unlabeled yohimbine 0.3 mg/kg i.v.
[15] = OLF olfactory bulb, unlabeled yohimbine 0.3 mg/kg i.v.
[16] = PFC prefrontal cortex, unlabeled yohimbine 0.3 mg/kg i.v.
[17] = SSC somatosensory cortex, unlabeled yohimbine 0.3 mg/kg i.v.
[18] = THAL thalamus, unlabeled yohimbine 0.3 mg/kg i.v.
[19] = unlabeled yohimbine 0.3 mg/kg vs baseline

For `O=S1(=O)c2cc(N3CCN4CCC3CC4)ccc2-c2cccc(F)c21` [ASEM], the “increase of fP of [^18F] DBT-10” value [1] is listed as “two-fold increase”.

For `COC(=O)[C@H]1[C@H]2C[C@H]3c4[nH]c5ccccc5c4CCN3C[C@H]2CC[C@@H]1O` [[^3H] -rauwolscine, [^3H]rauwolscine], the Kd (α2 adrenoceptor) is listed as 0.79 nM.

In the case of `C=CC1=C(C)/C(=C/c2[nH]c(Cc3[nH]c(/C=C4\NC(=O)C(C)=C4C=C)c(C)c3CCC(=O)O)c(CCC(=O)O)c2C)NC1=O` [bilirubin], the “rate of relaxation from plasma proteins” value (plasma proteins [2]) is listed as 0.6 s⁻¹.

In the case of `Cc1ccc(N(CC2=NCCN2)c2cccc(O)c2)cc1` [phentolamine], the “selectivity between α1 and α2 adrenoceptors” value (α1 and α2 adrenoceptors) is listed as “higher selectivity to α1 adrenoceptor”.

For `COC(=O)[C@@H]1[C@H]2C[C@H]3c4[nH]c5ccccc5c4CCN3C[C@@H]2CC[C@@H]1O` [yohimbine], the “fraction bound to plasma proteins” value (plasma proteins [3]) is given as “More than 80%”, the “global lowering of CBF” value ([4]; higher dose 1.6 mg/kg) is given as 30% and the “effect on CBF” value ([4]; low dose 0.07 mg/kg) is given as “unaffected”. The “increase of plasma free fraction fP of [^11C]yohimbine compared to baseline” value (plasma proteins [5]) was 30%, the “reduction of VT of [^11C]yohimbine” value (α2 adrenoceptors [6]; low dose 0.07 mg/kg) was “approximately 30%” and the “reduction of VT of [^11C]yohimbine” value (α2 adrenoceptors [6]; pre-treatment 1.7 mg/kg) was “failed to decrease VT further”. The “Binding potentials, BPND, percent-wise change (%)” value (α2 adrenoceptors [7]; [11]) was “(−54) %; also recorded: (−63) %; also recorded: (−82) %; also recorded: (−56) %; also recorded: (−51) %”, the “Volumes of Distribution, VT, percent-wise change (%)” value (“Volumes … percent-wise change (%)” for short) (α2 adrenoceptors [7]; [11]) was “(19) %; also recorded: (5) %; also recorded: (0) %; also recorded: (16) %; also recorded: (27) %” and the “Binding potentials, BPND, percent-wise change (%)” value (α2 adrenoceptors [7]; [12]) was “(−64) %; also recorded: (−59) %; also recorded: (−55) %; also recorded: (−47) %”. For the same compound, the “Volumes … percent-wise change (%)” value (α2 adrenoceptors [7]; [12]) was “(−6) %; also recorded: (5) %; also recorded: (25) %; also recorded: (3) %; also recorded: (34) %”, the “Binding potentials, BPND, percent-wise change (%)” value (α2 adrenoceptors [7]; HIP hippocampus, unlabeled yohimbine 0.3 mg/kg i.v.) was “(−59) %; also recorded: (−58) %; also recorded: (−50) %; also recorded: (−54) %; also recorded: (−46) %” and the “Volumes … percent-wise change (%)” value (α2 adrenoceptors [7]; HIPP hippocampus, unlabeled yohimbine 0.3 mg/kg i.v.) was “(4) %; also recorded: (9) %; also recorded: (36) %; also recorded: (14) %; also recorded: (35) %”. For the same compound, the “Binding potentials, BPND, percent-wise change (%)” value (α2 adrenoceptors [7]; [13]) was “(−58) %; also recorded: (−61) %; also recorded: (−65) %; also recorded: (−53) %; also recorded: (−49) %”, the “Volumes … percent-wise change (%)” value (α2 adrenoceptors [7]; [13]) was “(7) %; also recorded: (5) %; also recorded: (13) %; also recorded: (18) %; also recorded: (33) %” and the “Binding potentials, BPND, percent-wise change (%)” value (α2 adrenoceptors [7]; [14]) was “(−63) %; also recorded: (−65) %; also recorded: (−50) %; also recorded: (−61) %; also recorded: (−42) %”. For the same compound, the “Volumes … percent-wise change (%)” value (α2 adrenoceptors [7]; [14]) was “(1) %; also recorded: (−6) %; also recorded: (39) %; also recorded: (−1) %; also recorded: (44) %”, the “Binding potentials, BPND, percent-wise change (%)” value (α2 adrenoceptors [7]; [15]) was “(−71) %; also recorded: (−60) %; also recorded: (−78) %; also recorded: (−53) %; also recorded: (−58) %” and the “Volumes … percent-wise change (%)” value (α2 adrenoceptors [7]; [15]) was “(−15) %; also recorded: (10) %; also recorded: (−6) %; also recorded: (22) %; also recorded: (23) %”. For the same compound, the “Binding potentials, BPND, percent-wise change (%)” value (α2 adrenoceptors [7]; [16]) was “(−63) %; also recorded: (−60) %; also recorded: (−39) %; also recorded: (−61) %; also recorded: (−44) %”, the “Volumes … percent-wise change (%)” value (α2 adrenoceptors [7]; [16]) was “(−1) %; also recorded: (4) %; also recorded: (53) %; also recorded: (0) %; also recorded: (40) %” and the “Binding potentials, BPND, percent-wise change (%)” value (α2 adrenoceptors [7]; [17]) was “(−63) %; also recorded: (−62) %; also recorded: (−45) %; also recorded: (−59) %; also recorded: (−41) %”. For the same compound, the “Volumes … percent-wise change (%)” value (α2 adrenoceptors [7]; [17]) was “(−2) %; also recorded: (0) %; also recorded: (47) %; also recorded: (3) %; also recorded: (45) %”, the “Binding potentials, BPND, percent-wise change (%)” value (α2 adrenoceptors [7]; [18]) was “(−58) %; also recorded: (−57) %; also recorded: (−52) %; also recorded: (−44) %” and the “Volumes … percent-wise change (%)” value (α2 adrenoceptors [7]; [18]) was “(7) %; also recorded: (22) %; also recorded: (15) %; also recorded: (37) %”. The “degree of saturation, s (available receptors blocked)” value (α2 adrenoceptors [7]; average, 0.3 mg/kg yohimbine challenge, Extended Inhibition Plot) was 56%, the “decline of BPND of [^11C]yohimbine in the challenge condition compared to baseline” value (α2 adrenoceptors [7]; on average, unlabeled yohimbine 0.3 mg/kg i.v.) was 50–60% and the “effect of challenge on K1 of [^11C]yohimbine” value (α2 adrenoceptors [7]; [19]) was “markedly elevated”. For the same compound, the “effect of challenge on k2′ of [^11C]yohimbine” value (α2 adrenoceptors [7]; [19]) was “higher”, the “effect on blood pressure and heart rate” value [8] was “raise blood pressure and heart rate” and the “affinity to α2 adrenoceptor subtypes” value (α2 adrenoceptor subtypes) was “does not distinguish between the subtypes”. For the same compound, the “reduction of [^11C]mirtazepin binding” value ([9]; 0.3 mg/kg) was 23% and the “reduction of [^11C]mirtazepin binding” value ([9]; 3.0 mg/kg) was 43%.

In the case of lipopolysaccharide [LPS], the “increase of [^11C] PBR28 VT” value [10] is listed as 39%.
